In ChEMBL document CHEMBL6109078, “Pyrylium derivatives as outer membrane permeabilizers against MDR gram-negative bacteria via multi-target mode of action” (Eur J Med Chem, 2025):
Calls of active or inactive are those of the source. No cut-off for these calls is given here.

Legend:
[1] = tested on: Acinetobacter baumannii; assay: Synergistic antibacterial activity against multi-drug resistant Acinetobacter baumannii clinical isolate 5 assessed as fractional inhibitory concentration index in presence of polymyxin B by checkerboard assay; type: functional
[2] = tested on: Acinetobacter baumannii; assay: Synergistic antibacterial activity against multi-drug resistant Acinetobacter baumannii clinical isolate 43 assessed as fractional inhibitory concentration index in presence of gentamycin by checkerboard assay; type: functional
[3] = tested on: Acinetobacter baumannii; assay: Synergistic antibacterial activity against Acinetobacter baumannii ATCC 19606 assessed as fractional inhibitory concentration index in presence of amikacin by checkerboard assay; type: functional
[4] = tested on: Escherichia coli; assay: Synergistic antibacterial activity against Escherichia coli ATCC 35218 assessed as fractional inhibitory concentration index in presence of polymyxin B by checkerboard assay; type: functional
[5] = tested on: Acinetobacter baumannii; assay: Synergistic antibacterial activity against multi-drug resistant Acinetobacter baumannii clinical isolate 14 assessed as fractional inhibitory concentration index in presence of amikacin by checkerboard assay; type: functional
[6] = tested on: Acinetobacter baumannii; assay: Synergistic antibacterial activity against multi-drug resistant Acinetobacter baumannii clinical isolate 5 assessed as inhibition of bacterial growth in presence of polymyxin B by checkerboard assay; type: functional
[7] = tested on: Acinetobacter baumannii; assay: Antibacterial activity against multi-drug resistant Acinetobacter baumannii clinical isolate 43 assessed as inhibition of bacterial growth by CLSI protocol based method; type: functional
[8] = tested on: Pseudomonas aeruginosa; assay: Antibacterial activity Pseudomonas aeruginosa PAO1 assessed as inhibition of bacterial growth by CLSI protocol based method; type: functional
[9] = tested on: Acinetobacter baumannii; assay: Antibacterial activity against Acinetobacter baumannii ATCC 19606 assessed as inhibition of bacterial growth by measuring decrease in bacterial count at 6.25 to 50 microg/ml measured after 12 hrs by time-kill kinetics analysis; type: functional; conditions: dose 6.25-50 µg/ml
[10] = tested on: Escherichia coli; assay: Synergistic antibacterial activity against Escherichia coli ATCC 35218 assessed as inhibition of bacterial growth in presence of polymyxin B by checkerboard assay; type: functional
[11] = tested on: Escherichia coli; assay: Synergistic antibacterial activity against multi-drug resistant Escherichia coli clinical isolate 1 assessed as fractional inhibitory concentration index in presence of gentamycin by checkerboard assay; type: functional
[12] = tested on: Escherichia coli; assay: Synergistic antibacterial activity against Escherichia coli ATCC 25922 assessed as fractional inhibitory concentration index in presence of amikacin by checkerboard assay; type: functional
[13] = tested on: Escherichia coli; assay: Antibacterial activity against ESBL positive Escherichia coli ATCC 35218 assessed as inhibition of bacterial growth by CLSI protocol based method; type: functional
[14] = tested on: Escherichia coli; assay: Synergistic antibacterial activity against Escherichia coli CG-4 expressing MCR-1 and NDM-1 assessed as fractional inhibitory concentration index in presence of polymyxin B by checkerboard assay; type: functional
[15] = tested on: Acinetobacter baumannii; assay: Synergistic antibacterial activity against multi-drug resistant Acinetobacter baumannii clinical isolate 1 assessed as inhibition of bacterial growth by measuring polymyxin B MIC by checkerboard assay; type: functional
[16] = tested on: Escherichia coli; assay: Synergistic antibacterial activity against Escherichia coli CG-4 expressing MCR-1 and NDM-1 assessed as inhibition of bacterial growth in presence of polymyxin B by checkerboard assay; type: functional
[17] = tested on: Acinetobacter baumannii; assay: Synergistic antibacterial activity against Acinetobacter baumannii ATCC 19606 assessed as fractional inhibitory concentration index in presence of gentamycin by checkerboard assay; type: functional
[18] = tested on: Acinetobacter baumannii; assay: Synergistic antibacterial activity against multi-drug resistant Acinetobacter baumannii clinical isolate 14 assessed as inhibition of bacterial growth in presence of polymyxin B by checkerboard assay; type: functional
[19] = tested on: Escherichia coli; assay: Synergistic antibacterial activity against Escherichia coli CG-4 expressing MCR-1 and NDM-1 assessed as fractional inhibitory concentration index in presence of gentamycin by checkerboard assay; type: functional
[20] = tested on: Pseudomonas aeruginosa; assay: Synergistic antibacterial activity against Pseudomonas aeruginosa assessed as inhibition of bacterial growth in presence of polymyxin B by checkerboard assay; type: functional, organism-based
[21] = tested on: Escherichia coli; assay: Synergistic antibacterial activity against Escherichia coli ATCC 25922 assessed as inhibition of bacterial growth by measuring polymyxin B MIC by checkerboard assay; type: functional
[22] = tested on: Acinetobacter baumannii; assay: Synergistic antibacterial activity against multi-drug resistant Acinetobacter baumannii clinical isolate 1 assessed as fractional inhibitory concentration index in presence of gentamycin by checkerboard assay; type: functional
[23] = tested on: Acinetobacter baumannii; assay: Synergistic antibacterial activity against Acinetobacter baumannii ATCC 19606 assessed as inhibition of bacterial growth in presence of polymyxin B by checkerboard assay; type: functional
[24] = tested on: Acinetobacter baumannii; assay: Synergistic antibacterial activity against multi-drug resistant Acinetobacter baumannii clinical isolate 1 assessed as fractional inhibitory concentration index in presence of amikacin by checkerboard assay; type: functional
[25] = tested on: Escherichia coli; assay: Synergistic antibacterial activity against Escherichia coli CG-4 expressing MCR-1 and NDM-1 assessed as fractional inhibitory concentration index in presence of […] by checkerboard assay; type: functional
[26] = tested on: Acinetobacter baumannii; assay: Antibacterial activity against multi-drug resistant Acinetobacter baumannii clinical isolate 14 assessed as inhibition of bacterial growth by CLSI protocol based method; type: functional
[27] = tested on: Escherichia coli; assay: Synergistic antibacterial activity against Escherichia coli ATCC 35218 assessed as fractional inhibitory concentration index in presence of amikacin by checkerboard assay; type: functional
[28] = tested on: Acinetobacter baumannii; assay: Synergistic antibacterial activity against multi-drug resistant Acinetobacter baumannii clinical isolate 43 assessed as inhibition of bacterial growth by measuring polymyxin B MIC by checkerboard assay; type: functional
[29] = tested on: Escherichia coli; assay: Synergistic antibacterial activity against Escherichia coli ATCC 35218 assessed as inhibition of bacterial growth by measuring polymyxin B MIC by checkerboard assay; type: functional
[30] = tested on: Acinetobacter baumannii; assay: Antibacterial activity against Acinetobacter baumannii ATCC 19606 assessed as inhibition of bacterial growth by CLSI protocol based method; type: functional
[31] = tested on: Acinetobacter baumannii; assay: Synergistic antibacterial activity against multi-drug resistant Acinetobacter baumannii clinical isolate 43 assessed as fractional inhibitory concentration index in presence of amikacin by checkerboard assay; type: functional
[32] = tested on: Escherichia coli; assay: Synergistic antibacterial activity against Escherichia coli CG-4 expressing MCR-1 and NDM-1 assessed as inhibition of bacterial growth by measuring polymyxin B MIC by checkerboard assay; type: functional
[33] = tested on: Escherichia coli; assay: Synergistic antibacterial activity against multi-drug resistant Escherichia coli clinical isolate 1 assessed as inhibition of bacterial growth in presence of polymyxin B by checkerboard assay; type: functional
[34] = tested on: Acinetobacter baumannii; assay: Synergistic antibacterial activity against multi-drug resistant Acinetobacter baumannii clinical isolate 43 assessed as inhibition of bacterial growth in presence of polymyxin B by checkerboard assay; type: functional
[35] = tested on: Escherichia coli; assay: Synergistic antibacterial activity against multi-drug resistant Escherichia coli clinical isolate 1 assessed as fractional inhibitory concentration index in presence of amikacin by checkerboard assay; type: functional
[36] = tested on: Acinetobacter baumannii; assay: Antibacterial activity against multi-drug resistant Acinetobacter baumannii clinical isolate 2 assessed as inhibition of bacterial growth by CLSI protocol based method; type: functional
[37] = tested on: Acinetobacter baumannii; assay: Synergistic antibacterial activity against multi-drug resistant Acinetobacter baumannii clinical isolate 5 assessed as fractional inhibitory concentration index in presence of gentamycin by checkerboard assay; type: functional
[38] = tested on: Escherichia coli; assay: Antibacterial activity against multi-drug resistant Escherichia coli clinical isolate 1 assessed as inhibition of bacterial growth by CLSI protocol based method; type: functional
[39] = tested on: Acinetobacter baumannii; assay: Antibacterial activity against multi-drug resistant Acinetobacter baumannii clinical isolate 10 assessed as inhibition of bacterial growth by CLSI protocol based method; type: functional
[40] = tested on: Acinetobacter baumannii; assay: Synergistic antibacterial activity against multi-drug resistant Acinetobacter baumannii clinical isolate 5 assessed as inhibition of bacterial growth by measuring polymyxin B MIC by checkerboard assay; type: functional
[41] = tested on: Escherichia coli; assay: Synergistic antibacterial activity against Escherichia coli ATCC 25922 assessed as fractional inhibitory concentration index in presence of polymyxin B by checkerboard assay; type: functional

CC(C)(C)c1cc(/C=C/c2ccc(N3CCCC3)cc2)cc(C(C)(C)C)[o+]1.O=S(=O)([O-])C(F)(F)F
fractional inhibitory concentration index (FICI) [1]: 0.313
fractional inhibitory concentration index (FICI) [2]: 0.125
fractional inhibitory concentration index (FICI) [3]: 0.125
fractional inhibitory concentration index (FICI) [4]: 0.375
fractional inhibitory concentration index (FICI) [5]: 0.125
MIC [6]: 1.56 µg/mL
MIC [7]: 12.5 µg/mL
MIC [8]: > 100 µg/mL
Activity [9]: <6 log10CFU/ml
MIC [10]: 3.13 µg/mL
fractional inhibitory concentration index (FICI) [11]: 0.125
fractional inhibitory concentration index (FICI) [12]: 0.125
MIC [13]: 6.25 µg/mL
fractional inhibitory concentration index (FICI) [14]: 0.188
MIC [15]: 1.56 µg/mL
MIC [16]: 0.78 µg/mL
fractional inhibitory concentration index (FICI) [17]: 0.125
MIC [18]: 1.56 µg/mL
fractional inhibitory concentration index (FICI) [19]: 0.125
Activity [20]: inactive
MIC [21]: 31.25 10^-4 ug/ml
fractional inhibitory concentration index (FICI) [22]: 0.125
MIC [23]: 1.56 µg/mL
fractional inhibitory concentration index (FICI) [24]: 0.125
fractional inhibitory concentration index (FICI) [25]: 0.125
MIC [26]: 6.25 µg/mL
fractional inhibitory concentration index (FICI) [27]: 0.125
MIC [28]: 1 10^-4 ug/ml
MIC [29]: 63 10^-4 ug/ml
MIC [30]: 12.5 µg/mL
fractional inhibitory concentration index (FICI) [31]: 0.125
MIC [32]: 0.39 µg/mL
MIC [33]: 6.25 µg/mL
MIC [34]: 6.25 µg/mL
fractional inhibitory concentration index (FICI) [35]: 0.125
MIC [36]: 6.25 µg/mL
fractional inhibitory concentration index (FICI) [37]: 0.125
MIC [38]: ≥ 100 µg/mL
MIC [39]: 6.25 µg/mL
MIC [40]: 3 ng/mL
fractional inhibitory concentration index (FICI) [41]: 0.156
